Test results from patent publication US5051417A, “Indolythiadiazines for treating heart failure” (Les Laboratoires Beecham S.A., priority 1988, dated 1991).
Structures can show the parent of a compound that is named as a salt.

Tested on: canine cardiac myofibrillar Ca++-dependent Mg++-ATPase
Experiment: Measurement of myofibrillar Ca++-dependent Mg++-ATPase activity on canine cardiac myofibrils
Type: biochemical
Conditions: pH 7.0, 21° C.; for max (percent change of maximal ATPase activity): pCa=5.47
Method: 1. Measurement of myofibrillar Ca++-dependent Mq++-ATPase activity The effect on myofibrillar Ca++sensitivity and on maximal activity of myofibrillar Ca++-dependent Mg++-ATPase was determined on canine cardiac myofibrils. (a) Contractile protein preparation Cardiac myofibrils free of membrane contaminants were prepared from left ventricular tissue of dog hearts using a modification of the method described by SOLARO et al, Biochem. Biophys. Acta, 245, 259-262, (1971). Before centrifugation, the heart homogenate was filtered through gauze. After Triton X-100 treatments, the myofibrillar fraction was washed once by resuspension and centrifugation in 10 volumes of 1 mM EGTA, […], 30 mM imidazole, 2 mM MgCl2, pH 7.0. The pellet was then washed three times in 10 volumes of the same buffer without EGTA. Before the last centrifugation, the suspension of myofibrils was filtered through a stainless steel sieve with 0.25 mm meshes. Myofibrils were kept in pellet overnight. Before use, the pellet was suspended in a small amount of buffer, the protein concentration was determined by the method of BRADFORD M., Anal. Biochem., 1976, 72, 248 and adjusted in order to have a concentration between 6 and 7 mg/ml. (b) Myofibrillar ATPase activity Ca++-dependent myfibrillar ATPase activity was determined at 21° C., pH 7.0, by measuring the rate of release of inorganic phosphate. All assays were performed within 24hrs. of final purification, using the method described by SOLARO and […]., 51. 290-4,(1982). Reaction mixtures (4 ml) containing 0.6-0.7 mg/ml myofibrillar protein, 80mM KCl, 20 mM imidazole, 3 mM MgCl2, 1 mM EGTA, the desired amount of CaCl2, and the indicated concentration of drug or appropriate vehicle were preincubated for 6 min. prior to assay. The amount of CaCl2 was varied between 0 and 0.9 mM and the pCa (-log free Ca++) computed using 2.514×10^6 M^-1 as the apparent affinity of Ca++for EGTA at pH 7.0. Reactions were initiated by the addition of Na2 ATP to final concentration of 2 mM. After an incubation period of 12 min., reactions were quenched by the addition of an equal volume of ice-cold 10% trichloroacetic acid. The protein was pelleted by centrifugation (2000 g, 15 min.) and Pi was assayed in the supernatant fraction using a modification of the method described by LANZETTA et al, Anal. Biochem., 100, 95-97, (1979). The following solutions were prepared: (1) 3.7% ammonium heptamolybdate in 0.12 N H2 SO4 (2) 0.074% malachite green oxalate in 1% polyvinylic alcohol. The colour reagent was prepared by mixing an equal volume of solution (1) and (2) 15 min. before the assay. For the assay, 1,700 μl of 1% H2 SO4 and 1 ml of colour reagent were added to 100 μl of sample. Colour development occurred at room temperature for 30 min. and was quenched by the addition of 200 μl of 1M tri-potassium citrate. The absorbance was measured at 620 millimicrons. The effect of each compound, tested at the indicated concentration, on the relation between pCa and percent activation was determined taking 100% for the maximum ATPase activity obrained with vehicle alone. The effect on Ca++sensitivity was quantified by measuring the shift of the pCa giving 50% of the maximal control ATPase activity. The effect on maximal ATPase activity was expressed as the percent change of ATPase activity for pCa=5.47. Mean effects on myofibrillar ATPase activity were obtained from 1 to 5 preparations, (compounds tested at 2×10^-4 M).

max (percent change of maximal ATPase activity) (30 μM) | pCa (shift of the pCa giving 50% of the maximal control ATPase activity; Ca++ sensitivity) (30 μM) | max (percent change of maximal ATPase activity) (10 μM) | pCa (shift of the pCa giving 50% of the maximal control ATPase activity; Ca++ sensitivity) (10 μM) | SMILES
7 ± 2% | +0.11 ± 0.04 |  |  | CC1SC(=O)N(C)N=C1c1ccc2c(c1)C(=NNc1ccccc1)C(=O)N2 (centres unmarked) [Example 41]
24 ± 5% | +0.92 ± 0.06 |  |  | CC1SC(=O)NN=C1c1ccc2c(c1)C(=NNc1cccnc1)C(=O)N2 (centres unmarked) [Example 36, 5-(3,6-Dihydro-6-methyl-2-oxo-2H-1,3,4-thiadiazin-5-yl) -1H-indole-2,3-dione 3-(3-pyridylhydrazone)]
3 ± 2% | +0.04 ± 0.02 |  |  | CC1SC(=O)NN=C1c1ccc2c(c1)C(=NNC(=O)c1ccncc1)C(=O)N2 (centres unmarked) [Example 39]
25 ± 4% | +0.78 ± 0.1 |  |  | CC1SC(=O)NN=C1c1ccc2c(c1)C(=NNc1ccc(Cl)cc1)C(=O)N2 (centres unmarked) [Example 29, 5-(3,6-Dihydro-6-methyl-2-oxo-2H-1,3,4-thiadiazin-5-yl) -1H-indole-2,3-dione 3-[(4-chloro)phenylhydrazone]]
0 ± 1% | +0.05 ± 0.06 |  |  | CC1SC(=O)NN=C1c1ccc2c(c1)C(=NNc1ccccn1)C(=O)N2.Cl (centres unmarked) [Example 35, 5-(3,6-Dihydro-6-methyl-2-oxo-2H-1,3,4-thiadiazin-5-yl)-1H-indole-2,3-dione 3-(2-pyridylhydrazone) monohydrochloride]
-13 ± 5% | +0.19 ± 0.08 |  |  | CC1SC(=O)NN=C1c1ccc2c(c1)C(=Cc1ccccn1)C(=O)N2 (centres unmarked) [Example 20, 1,3-Dihydro-5-(3,6-dihydro-6-methyl-2-oxo-2H-1,3,4-thiadiazin-5-yl)-3-(2-pyridylmethylene)-2H-indol-2-one]
-1 ± 0% | +0.05 ± 0.03 |  |  | CC1SC(=O)NN=C1c1ccc2c(c1)C(=NNc1ccc(Cl)c(Cl)c1)C(=O)N2 (centres unmarked) [Example 27, 5-(3,6-Dihydro-6-methyl-2-oxo-2H-1,3,4-thiadiazin-5-yl) -1H-indole-2,3-dione 3-(3,4-dichloroohenyl)hydrazone]
5 ± 2% | +0.40 ± 0.02 |  |  | CC1SC(=O)NN=C1c1ccc2c(c1)C(=NNc1ccc(C(=O)O)cc1)C(=O)N2 (centres unmarked) [Example 34]
-42 ± 7% | +1.30 ± 0.00 | 41 ± 2% | 1.07 ± 0.02 | Cc1ccc(NN=C2C(=O)Nc3ccc(C4=NNC(=O)SC4C)cc32)cc1 (centres unmarked) [Example 21, 5-(3,6-Dihydro-6-methyl-2-oxo-2H-1,3,4-thiadiazin-5-yl) -1H-indole-2,3-dione 3-[(4-methyl)phenylhydrazone]]
17 ± 2% | +0.65 ± 0.05 |  |  | CC1SC(=O)NN=C1c1ccc2c(c1)C(=NN(C)c1ccccc1)C(=O)N2 (centres unmarked) [Example 26, 5-(3,6-Dihydro-6-methyl-2-oxo-2H-1,3,4-thiadiazin-5-yl) -1H-indole-2,3-dione 3-(methylphenylhydrazone)]
2 ± 4% | +0.08 ± 0.04 |  |  | COC(=O)NN=C1C(=O)Nc2ccc(C3=NNC(=O)SC3C)cc21 (centres unmarked) [Example 15, Methyl 2-[2,3-dihydro-5-(3,6-dihydro-6-methyl-2-oxo-2H -1,3,4-thiadiazin-5-yl)-2-oxo-1H-indol-3-ylidene]hydrazine carboxylate]
3 ± 1% | +0.37 ± 0.05 |  |  | CC#N.CC1SC(=O)NN=C1c1ccc2c(c1)C(=NNc1ccc(S(C)(=O)=O)cc1)C(=O)N2 (centres unmarked) [Example 33]
-14 ± 7% | +0.23 ± 0.06 |  |  | CC1SC(=O)NN=C1c1ccc2c(c1)C(=Cc1cccnc1)C(=O)N2 (centres unmarked) [Example 19, 1,3-Dihydro-5-(3,6-dihydro-6-methyl-2-oxo-2H-1,3,4-thiadiazin-5-yl)-3-(3-pyridylmethylene)-2H-indol-2-one]
34 ± 5% | +1.05 ± 0.06 | 34 ± 7% | 1.10 ± 0.02 | CC1SC(=O)NN=C1c1ccc2c(c1)C(=NNC(=O)c1cccnc1)C(=O)N2 (centres unmarked) [Example 38, 3-Pyridinecarboxylic acid, 2-[2,3-dihydro-5-(3,6-dihydro-6-methyl-2-oxo-2H-1,3,4-thiadiazin-5-yl)-2-oxo-1H-indol-3-ylidenelhydrazide hydrochloride]
21 ± 4% | +0.64 ± 0.1 |  |  | CC1SC(=O)NN=C1c1ccc2c(c1)C(=NNCc1ccccc1)C(=O)N2 (centres unmarked) [Example 22, 5-(3,6-Dihydro-6-methyl-2-oxo-2H-1,3,4-thiadiazin-5-yl) -1H-indole-2,3-dione 3-[(phenylmethyl)hydrazone]]
28 ± 6% | +1.01 ± 0.07 |  |  | CC1SC(=O)NN=C1c1ccc2c(c1)C(=NNc1ccc(F)cc1)C(=O)N2 (centres unmarked) [Example 30]
-9 ± 1% | +0.14 ± 0.03 |  |  | CC1SC(=O)NN=C1c1ccc2c(c1)C(=NNC(=O)c1ccccn1)C(=O)N2 (centres unmarked) [Example 37]
11 ± 4% | +0.30 ± 0.02 |  |  | CC1SC(=O)NN=C1c1ccc2c(c1)C(=NNc1ccc(C(F)(F)F)cc1)C(=O)N2 (centres unmarked) [Example 42, 5-(3,6-Dihydro-6-methyl-2-oxo-2H-1,3,4-thiadiazin-5-yl) -1H-indole-2,3-dione 3-[4-trifluoromethylphenylhydrazone]]
22 ± 3% | +0.49 ± 0.06 |  |  | CC1SC(=O)NN=C1c1ccc2c(c1)C(=NNC1CCCCC1)C(=O)N2 (centres unmarked) [Example 25, 5-(3,6-Dihydro-6-methyl-2-oxo-2H-1,3,4-thiadiazin-5-yl) -1H-indole-2,3-dione 3-(cyclohexylhydrazone)]
8 ± 6% | +0.05 ± 0.02 |  |  | CCOC(=O)CON=C1C(=O)Nc2ccc(C3=NNC(=O)SC3C)cc21 (centres unmarked) [Example 23, Ethyl[[[2,3-dihydro-5-(3,6-dihydro-6-methyl-2-oxo-2H -1,3,4-thiadiazin-5-yl)-2-oxo-1H-indol-3-ylidene]amino]oxy]lacetate]
